Source: US20060281771A1, “SYNERGISTIC MODULATION OF FLT3 KINASE USING AMINOQUINOLINE AND AMINOQUINAZOLINE KINASE MODULATORS” (priority 2005, published 2006)

Target: T1, wild-type FLT3 phosphorylation in Baf3 FLT3 cells (Homo sapiens, UniProt P36888)
T1 construct: host or cells: Baf3 (murine B cell lymphoma line)
T1 sequence (P36888 27-993): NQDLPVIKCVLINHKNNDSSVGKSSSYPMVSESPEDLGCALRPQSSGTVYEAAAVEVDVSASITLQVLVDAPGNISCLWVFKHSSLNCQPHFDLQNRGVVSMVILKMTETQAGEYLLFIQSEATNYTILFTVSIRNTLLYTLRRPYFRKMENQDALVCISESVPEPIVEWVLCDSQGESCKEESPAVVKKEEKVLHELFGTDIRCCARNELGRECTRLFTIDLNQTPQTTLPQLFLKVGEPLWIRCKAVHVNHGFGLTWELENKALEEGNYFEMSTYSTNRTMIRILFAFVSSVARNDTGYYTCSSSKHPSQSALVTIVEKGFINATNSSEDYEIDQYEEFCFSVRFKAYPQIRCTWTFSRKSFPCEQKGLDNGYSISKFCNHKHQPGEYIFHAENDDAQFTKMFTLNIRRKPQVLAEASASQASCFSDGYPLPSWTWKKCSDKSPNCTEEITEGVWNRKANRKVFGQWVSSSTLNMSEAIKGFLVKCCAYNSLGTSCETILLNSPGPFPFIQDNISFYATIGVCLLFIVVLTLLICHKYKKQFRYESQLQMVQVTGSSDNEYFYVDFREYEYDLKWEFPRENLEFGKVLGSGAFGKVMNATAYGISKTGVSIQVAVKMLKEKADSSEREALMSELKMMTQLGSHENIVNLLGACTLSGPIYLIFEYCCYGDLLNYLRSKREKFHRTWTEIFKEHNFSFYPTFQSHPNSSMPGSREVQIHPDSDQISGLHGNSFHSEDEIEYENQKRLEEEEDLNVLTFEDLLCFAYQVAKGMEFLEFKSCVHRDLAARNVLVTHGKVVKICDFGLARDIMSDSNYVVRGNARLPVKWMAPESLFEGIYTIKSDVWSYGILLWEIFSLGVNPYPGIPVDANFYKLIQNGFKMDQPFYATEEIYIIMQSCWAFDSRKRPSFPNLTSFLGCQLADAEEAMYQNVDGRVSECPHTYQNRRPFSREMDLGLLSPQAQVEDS
Assay: Cell-based FLT3 receptor ELISA
Settings: FLT ligand-induced FLT3 phosphorylation
Protocol: Specific cellular inhibition of FLT ligand-induced wild-type FLT3 phosphorylation was measured in the following manner: Baf3 FLT3 cells overexpressing the FLT3 receptor were obtained from Dr. Michael Heinrich (Oregon Health and Sciences University). The Baf3 FLT3 cell lines were created by stable transfection of parental Baf3 cells (a murine B cell lymphoma line dependent on the cytokine IL-3 for growth) with wild-type FLT3. Cells were selected for their ability to grow in the absence of IL-3 and in the presence of FLT3 ligand.
Baf3 cells were maintained in RPMI 1640 with 10% FBS, penn/strep and 10 ng/ml FLT ligand at 37° C., 5% CO2. To measure direct inhibition of the wild-type FLT3 receptor activity and phosphorylation a sandwich ELISA method was developed similar to those developed for other RTKs (see Sadick, M D, Sliwkowski, M X, Nuijens, A, Bald, L, Chiang, N, Lofgren, J A, Wong W L T. Analysis of Heregulin-Induced ErbB2 Phosphorylation with a High-Throughput Kinase Receptor Activation Enzyme-Linked Immunsorbent Assay, Analytical Biochemistry. 1996; 235:207-214 and Baumann C A, Zeng L, Donatelli R R, Maroney A C. Development of a quantitative, high-throughput cell-based enzyme-linked immunosorbent assay for detection of colony-stimulating factor-1 receptor tyrosine kinase inhibitors. J Biochem Biophys Methods. 2004; 60:69-79.). 200 μL of Baf3FLT3 cells (1×10^6/mL) were plated in 96 well dishes in RPMI 1640 with 0.5% serum and 0.01 ng/mL IL-3 for 16 hours prior to 1 hour compound or DMSO vehicle incubation. Cells were treated with 100 ng/mL Flt ligand (R&D Systems Cat# 308-FK) for 10 min. at 37° C. Cells were pelleted, washed and lysed in 100 ul lysis buffer (50 mM Hepes, 150 mM NaCl, 10% Glycerol, 1% Triton-X-100, 10 mM NaF, 1 mM EDTA, 1.5 mM MgCl2, 10 mM NaPyrophosphate) supplemented with phosphatase (Sigma Cat# P2850) and protease inhibitors (Sigma Cat #P8340). Lysates were cleared by centrifugation at 1000×g for 5 minutes at 4° C. Cell lysates were transferred to white wall 96 well microtiter (Costar #9018) plates coated with 50 ng/well anti-FLT3 antibody (Santa Cruz Cat# sc-480) and blocked with SeaBlock reagent (Pierce Cat#37527). Lysates were incubated at 4° C. for 2 hours. Plates were washed 3× with 200 ul/well PBS/0.1% Triton-X-100. Plates were then incubated with 1:8000 dilution of HRP-conjugated anti-phosphotyrosine antibody (Clone 4G10, Upstate Biotechnology Cat#16-105) for 1 hour at room temperature. Plates were washed 3× with 200 ul/well PBS/0.1% Triton-X-100. Signal detection with Super Signal Pico reagent (Pierce Cat#37070) was done according to manufacturer's instruction with a Berthold microplate luminometer. All data points are an average of triplicate samples. […] Inhibition and IC50 data analysis was done with GraphPad Prism using a non-linear regression fit with a multiparamater, sigmoidal dose-response (variable slope) equation.

Structure (SMILES) | IC50 [nM]
COc1cc2ncnc(N3CCC(N(C)C(=O)Nc4ccc(C(C)C)cc4)C3)c2cc1OC (centres unmarked) [Compound 19, 1-[1-(6,7-Dimethoxy-quinazolin-4-yl)-pyrrolidin-3-yl]-3-(4-isopropyl-phenyl)-1-methyl-urea] | 210
COc1cc2ncnc(N3CCC(NC(=O)Cc4ccc(C(C)C)cc4)C3)c2cc1OC (centres unmarked) [Compound 35, N-[1-(6,7-Dimethoxy-quinazolin-4-yl)-pyrrolidin-3-yl]-2-(4-isopropyl-phenyl)-acetamide] | > 3000
COc1cc2ncnc(N3CCC(OC(=O)Nc4ccc(OC5CCC5)nc4)C3)c2cc1OC (centres unmarked) [Compound 12, (6-Cyclobutoxy-pyridin-3-yl)-carbamic acid 1-(6,7-dimethoxy-quinazolin-4-yl)-pyrrolidin-3-yl ester] | 11
COc1cc2ncnc(N3CCC(NC(=O)Nc4ccc(OC(C)C)cc4)C3)c2cc1OC (centres unmarked) [Compound 8, 1-[1-(6,7-Dimethoxy-quinazolin-4-yl)-pyrrolidin-3-yl]-3-(4-isopropoxy-phenyl)-urea] | 360
COc1cc2ncnc(N3CCC(C(=O)Nc4ccc(OC(C)C)cc4)CC3)c2cc1OC [Compound 23, 1-(6,7-Dimethoxy-quinazolin-4-yl)-piperidine-4-carboxylic acid (4-isopropoxy-phenyl)-amide] | 176
COc1cc2ncc(C#N)c(N3CCC(OC(=O)Nc4ccc(OC(C)C)cc4)C3)c2cc1OC (centres unmarked) [Compound 32, (4-Isopropoxy-phenyl)-carbamic acid 1-(3-cyano-6,7-dimethoxy-quinolin-4-yl)-pyrrolidin-3-yl ester] | 1200
COc1cc2ncnc(N3CCC(N(C)C(=O)Nc4ccc(OC(C)C)cc4)C3)c2cc1OC (centres unmarked) [Compound 36, 1-[1-(6,7-Dimethoxy-quinazolin-4-yl)-pyrrolidin-3-yl]-3-(4-isopropoxy-phenyl)-1-methyl-urea] | 1300
COc1cc2ncnc(N3CCCCC3COC(=O)Nc3ccc(C(C)C)cc3)c2cc1OC (centres unmarked) [Compound 33, (4-Isopropyl-phenyl)-carbamic acid 1-(6,7-dimethoxy-quinazolin-4-yl)-piperidin-2-ylmethyl ester] | 559
COc1cc2ncnc(N3CCC(OC(=O)Nc4ccc(OC(C)C)cc4)C3)c2cc1OC (centres unmarked) [Compound 15, (4-Isopropoxy-phenyl)-carbamic acid 1-(6,7-dimethoxy-quinazolin-4-yl)-pyrrolidin-3-yl ester] | 320
CC(C)c1ccc(NC(=O)NC2CCN(c3ncnc4ccccc34)C2)cc1 (centres unmarked) [Compound 16, 1-(4-Isopropyl-phenyl)-3-(1-quinazolin-4-yl-pyrrolidin-3-yl)urea] | 242
COc1cc2ncc(C#N)c(N3CCC(NC(=O)Nc4ccc(OC(C)C)cc4)C3)c2cc1OC (centres unmarked) [Compound 29, 1-[1-(3-Cyano-6,7-dimethoxy-quinolin-4-yl)-pyrrolidin-3-yl]-3-(4-isopropoxy-phenyl)-urea] | 3100
COc1cc2ncc(C#N)c(N3CCC(NC(=O)Nc4ccc(C(C)C)cc4)C3)c2cc1OC (centres unmarked) [Compound 26, 1-[1-(3-Cyano-6,7-dimethoxy-quinolin-4-yl)-pyrrolidin-3-yl]-3-(4-isopropyl-phenyl)-urea] | 331
COc1cc2ncc(C#N)c(N3CCC(OC(=O)Nc4ccc(C(C)C)cc4)C3)c2cc1OC (centres unmarked) [Compound 37, (4-Isopropyl-phenyl)-carbamic acid 1-(3-cyano-6,7-dimethoxy-quinolin-4-yl)-pyrrolidin-3-yl ester] | 1100
COc1cc2ncnc(N3CCCC(NC(=O)Nc4ccc(C(C)C)cc4)C3)c2cc1OC (centres unmarked) [Compound 28, 1-[1-(6,7-Dimethoxy-quinazolin-4-yl)-piperidin-3-yl]-3-(4-isopropyl-phenyl)-urea] | 1900

Further lines, results first:

IC50 [nM] | Structure (SMILES)
43 | CC(C)c1ccc(NC(=O)OC2CCN(c3ncnc4ccc(I)cc34)C2)cc1 (centres unmarked) [Compound 20, (4-Isopropyl-phenyl)-carbamic acid 1-(6-iodo-quinazolin-4-yl)-pyrrolidin-3-yl ester]
64 | COc1cc2ncnc(N3CCC(OC(=O)Nc4ccc(C(C)C)cc4)C3)c2cc1OC (centres unmarked) [Compound 2, (4-Isopropyl-phenyl)-carbamic acid 1-(6,7-dimethoxy-quinazolin-4-yl)-pyrrolidin-3-yl ester]
16 | COc1cc2ncnc(N3CCC(OC(=O)Nc4ccc(C(C)C)cc4)CC3)c2cc1OC [Compound 1, (4-Isopropyl-phenyl)-carbamic acid 1-(6,7-dimethoxy-quinazolin-4-yl)-piperidin-4-yl ester]
6 | COc1cc2ncnc(N3CCC(CC(=O)Nc4ccc(C(C)C)cc4)CC3)c2cc1OC [Compound 5, 2-[1-(6,7-Dimethoxy-quinazolin-4-yl)-piperidin-4-yl]-N-(4-isopropyl-phenyl)-acetamide]
49 | COc1cc2ncnc(N3CCC(CNC(=O)Nc4ccc(C(C)C)cc4)CC3)c2cc1OC [Compound 18, 1-[1-(6,7-Dimethoxy-quinazolin-4-yl)-piperidin-4-ylmethyl]-3-(4-isopropyl-phenyl)-urea]
6 | COc1cc2ncnc(N3CCCC(COC(=O)Nc4ccc(C(C)C)cc4)C3)c2cc1OC (centres unmarked) [Compound 4]
46 | COc1cc2ncnc(N3CCC(CC(=O)Nc4ccc(C(C)C)cc4)C3)c2cc1OC (centres unmarked) [Compound 6, 2-[11-(6,7-Dimethoxy-quinazolin-4-yl)-pyrrolidin-3-yl]-N-(4-isopropyl-phenyl)-acetamide]
63 | COc1cc2ncnc(N3CCC(NC(=O)Cc4ccc(C(C)C)cc4)CC3)c2cc1OC [Compound 21, N-[1-(6,7-Dimethoxy-quinazolin-4-yl)-piperidin-4-yl]-2-(4-isopropyl-phenyl)-acetamide]
118 | COc1cc2ncnc(N3CCC(OC(=O)Nc4ccc(OC(C)C)cc4)CC3)c2cc1OC [Compound 3, (4-Isopropoxy-phenyl)-carbamic acid 1-(6,7-dimethoxy-quinazolin-4-yl)-piperidin-4-yl ester]
4 | CC(C)c1ccc(NC(=O)OC2CCN(c3ncnc4ccc(C#CCO)cc34)C2)cc1 (centres unmarked) [Compound 14, (4-Isopropyl-phenyl)-carbamic acid 1-[6-(3-hydroxy-prop-1-ynyl)-quinazolin-4-yl]-pyrrolidin-3-yl ester]
140 | COc1cc2ncnc(N3CCC(NC(=O)Nc4ccc(C(C)C)cc4)C3)c2cc1OC (centres unmarked) [Compound 7, 1-[1-(6,7-Dimethoxy-quinazolin-4-yl)-pyrrolidin-3-yl]-3-(4-isopropyl-phenyl)-urea]
27 | COc1cc2ncnc(N3CCCC3COC(=O)Nc3ccc(C(C)C)cc3)c2cc1OC (centres unmarked) [Compound 9]
